The record followed here is patent publication US20100137419A1, “ANTI-CANCER AGENT” (WAN STATION CO., LTD., priority 2006, published 2010).

Series [1] has as its system mouse malignant melanoma cell line (B16). The series can be described thus: Examination of anti-cancer action 2 (with electroporation), cell survival rate with Tetra Color One. The following applies: DMSO 0.1%. The format is cell-based. As for the experimental part: (§1) Subsequently, the cell line contained in each of the samples A0 to A5 was cultured in a CO2 incubator for 24 hours. The temperature in the CO2 incubator was set at 37.0° C., and the concentration of CO2 was set at 5.0%. Thereafter, 10 μl of a cell proliferation test reagent (manufactured by Seikagaku Corp.; product name: Tetra Color One) was added to each sample, and they were reacted in a CO2 incubator for 2 hours. Thereafter, the absorbance at a wavelength of 450 nm (control wavelength: 600 nm) was measured using a microplate reader (manufactured by Bio-Rad Laboratories, Inc.), so as to measure the survival rate of the cell line. The survival rate was measured at time points of 24, 48, and 72 hours after the reaction with the cell proliferation test reagent.
Thereafter, a DC pulse of 30 V was applied to the electrodes of each cuvette 10 times, so as to perform an electroporation operation.
Subsequently, the cell line contained in the samples D0 to D2 were cultured under the same conditions as those described in the “determination of solvent concentration” above, and the cell proliferation test reagent was reacted therewith. Then, the survival rate of the cells was measured at 0, 24, 48, and 72 hours after the reaction.

Series [2] can be described thus: heat stability of the rotaxane compound. Format: physicochemical.
Series [3] concerns mouse malignant melanoma cell line (B16). The series can be described thus: Examination of anti-cancer action 1 (without electroporation), cell survival rate with Tetra Color One. The format is cell-based. The following applies: 10 and 100 nM, DMSO 0.1%, without electroporation, 0, 24, 48, 72 hours (FIG. 3). As for the experimental part:
as §1
Subsequently, the cell line contained in the samples C0 to C2 were cultured under the same conditions as those described in the “determination of solvent concentration” above, and the cell proliferation test reagent was reacted therewith. Then, the survival rate of the cells was measured at 0, 24, 48, and 72 hours after the reaction.

Turning to “[2][bis (2-(3,5-dimethylphenylcarbonyloxy)ethyl) ammonium trifluoromethanesulfonate]-[dibenzo-24-crown-8] rotaxane”, the “survival rate / proliferation of cancer cells” value is listed as “suppress the proliferation of cancer cells became significant” in series [1] (10 and 100 nM, electroporation 30 V DC pulse 10 times, 0, 24, 48, 72 hours (FIG. 4)); “has an effect of retarding the proliferation of cancer cells” in series [3]. Further, in series [1] (sample D2: 100 nM, electroporation 30 V, 0-72 hours (FIG. 4)), the “survival rate / number of cancer cells over time” value is reported as “cancer cells were reduced over time”. Further, in series [2], the heat stability entry is on record as “relatively heat-stable”.
